Assay results reported in ChEMBL document CHEMBL1124139, “2,4-Dihydro-3H-1,2,4-triazole-3-thiones as potential antidepressant agents” (J Med Chem, 1988).

Legend:
Mus musculus [1] = species on record: Mus musculus; experiment: Antidepressant activity was evaluated by measuring its ability to antagonize RO 4-1284-induced hypothermia in mice; type: functional
Mus musculus [2] = species on record: Mus musculus; experiment: Antidepressant activity was evaluated by measuring its ability to antagonize reserpine-induced ptosis in mice; type: functional
[3] = Acute cytotoxicity was evaluated as LD50 in mice (ip); type: organism-based; details: mouse, in vivo
Rattus norvegicus [4] = experiment: Percent inhibitory activity caused by norepinephrine after ip injection of 10 mg/kg administered once a day for 21 days (chronic treatment); type: functional; details: 504 h, route intraperitoneal
Rattus norvegicus [5] = species on record: Rattus norvegicus; experiment: Concentration required to inhibit [3H]- NE(norepinephrine) uptake in to rat cortical synaptosomes; type: functional; set-up: scale not given: the % may be the effect or the level left; details: Brain
Rattus norvegicus [6] = experiment: Inhibitory activity of compound against ability of NE to enhance the inhibition produced by GABA after 1 i.p. injection of 10 mg/kg administered (acute treatment); type: functional; details: ip, route intraperitoneal
Rattus norvegicus [7] = experiment: Percent inhibitory activity caused by norepinephrine after 1 i.p. injection of 10 mg/kg administered (acute treatment); type: functional; details: ip, route intraperitoneal
Rattus norvegicus [8] = experiment: Inhibitory activity of compound against ability of NE to enhance the inhibition produced by GABA after ip injection of 10 mg/kg administered once a day for 21 days (chronic treatment); type: functional; details: 504 h, route intraperitoneal
[9] = target: T1, Amine oxidase [flavin-containing] A (Rattus norvegicus, UniProt P21396); experiment: Concentration required to inhibit Monoamine oxidase A activity in rat brain using [14C]5-HT; type: tissue-based
T1 sequence (P21396 whole entry): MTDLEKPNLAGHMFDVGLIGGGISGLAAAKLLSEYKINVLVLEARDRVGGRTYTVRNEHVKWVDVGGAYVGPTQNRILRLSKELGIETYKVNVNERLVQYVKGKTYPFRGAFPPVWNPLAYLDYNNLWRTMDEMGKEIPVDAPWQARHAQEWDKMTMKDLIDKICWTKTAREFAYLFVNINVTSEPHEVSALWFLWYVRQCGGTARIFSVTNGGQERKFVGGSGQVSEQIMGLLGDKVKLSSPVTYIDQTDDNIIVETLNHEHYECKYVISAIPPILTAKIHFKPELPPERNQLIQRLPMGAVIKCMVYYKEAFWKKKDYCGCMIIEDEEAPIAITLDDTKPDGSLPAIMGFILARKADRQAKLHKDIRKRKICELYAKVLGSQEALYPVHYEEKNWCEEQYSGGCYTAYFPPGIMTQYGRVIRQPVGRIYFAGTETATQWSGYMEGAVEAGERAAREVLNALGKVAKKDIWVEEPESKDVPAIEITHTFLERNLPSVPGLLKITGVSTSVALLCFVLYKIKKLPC

Rattus norvegicus [10] = species on record: Rattus norvegicus; experiment: Concentration required to inhibit [3H]- NE(norepinephrine) uptake into rat cortical synaptosomes; type: functional; set-up: scale not given: the % may be the effect or the level left; details: Brain
[11] = target: T2, Amine oxidase [flavin-containing] B (Rattus norvegicus, UniProt P19643); experiment: Concentration required to inhibit Monoamine oxidase B in rat brain using [14C]phenylethylamine; type: tissue-based; set-up: Control: scale not given: the % may be the effect or the level left
T2 sequence (P19643 whole entry): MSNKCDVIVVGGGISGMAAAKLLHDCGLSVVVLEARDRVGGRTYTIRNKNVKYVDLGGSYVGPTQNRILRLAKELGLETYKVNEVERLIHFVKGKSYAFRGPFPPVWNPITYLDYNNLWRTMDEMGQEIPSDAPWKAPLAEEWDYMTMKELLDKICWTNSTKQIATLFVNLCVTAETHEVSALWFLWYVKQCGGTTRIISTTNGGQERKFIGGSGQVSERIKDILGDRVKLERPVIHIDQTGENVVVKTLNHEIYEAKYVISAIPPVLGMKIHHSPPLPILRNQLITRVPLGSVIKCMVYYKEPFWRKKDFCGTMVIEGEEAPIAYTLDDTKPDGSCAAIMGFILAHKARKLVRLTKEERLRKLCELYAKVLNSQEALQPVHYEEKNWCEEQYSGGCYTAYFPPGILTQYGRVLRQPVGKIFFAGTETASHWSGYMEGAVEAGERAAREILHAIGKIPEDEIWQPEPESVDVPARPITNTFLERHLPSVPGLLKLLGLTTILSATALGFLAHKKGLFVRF

Rattus norvegicus [12] = experiment: Ability of compound to inhibity the ability of NE to enhance the inhibition produced by GABA after 1 i.p. injection of 10 mg/kg administered (acute treatment); type: functional; details: ip, route intraperitoneal
Rattus norvegicus [13] = experiment: Ability of compound to inhibity the ability of NE to enhance the inhibition produced by GABA after ip injection of 10 mg/kg administered once a day for 21 days (chronic treatment); type: functional; details: 504 h, route intraperitoneal

SMILES | ED50 (Mus musculus [1]) | ED50 (Mus musculus [2]) | LD50 [3] | other results
CN(C)CCCN1c2ccccc2CCc2ccccc21 [IMIPRAMINE] | 0.5 mg/kg | – | – | –
Cn1nc(-c2cccc3ccccc23)n(C)c1=S | > 50 mg/kg | > 200 mg/kg | > 800 mg/kg | –
CNCCCN1c2ccccc2CCc2ccccc21 [DESIPRAMINE] | 0.94 mg/kg | 1.86 mg/kg | 75 mg/kg | inhibition in vivo at 10 mg/kg (Rattus norvegicus [4]): 7.8%; Control (Rattus norvegicus [5]): 37%; inhibition in vivo at 10 mg/kg (Rattus norvegicus [6]): 68%; inhibition in vivo at 10 mg/kg (Rattus norvegicus [7]): 3.5%; inhibition in vivo at 10 mg/kg (Rattus norvegicus [8]): 49%
CCn1nc(-c2ccc(Cl)cc2)n(C)c1=S | > 50 mg/kg | 100 mg/kg | 400 mg/kg | –
Cn1c(S)nnc1-c1ccccc1F | > 25 mg/kg | > 200 mg/kg | > 800 mg/kg | –
CC(Cc1ccccc1)NN (stereo not given) [PHENIPRAZINE] | 1.1 mg/kg | 1.61 mg/kg | 100 mg/kg | –
Cn1nc(-c2ccccc2F)n(C)c1=S | 0.74 mg/kg | 0.23 mg/kg | 400 mg/kg | MAO-A activity remaining (% of control) [9]: 72%; Control (Rattus norvegicus [10]): 106%; MAO-B activity (% of control) [11]: 96%
CCn1c(-c2ccc(Cl)cc2)nn(C)c1=S | > 50 mg/kg | 21.2 mg/kg | > 800 mg/kg | –
Cn1nc(-c2ccc3c(c2)OCO3)n(C)c1=S | > 50 mg/kg | > 200 mg/kg | > 800 mg/kg | –
COc1ccc(-c2nn(C)c(=S)n2C)cc1 | > 25 mg/kg | 3.3 mg/kg | > 800 mg/kg | –
Cn1nc(-c2ccc(F)cc2)n(C)c1=S | 0.61 mg/kg | 1 mg/kg | 200 mg/kg | Control (Rattus norvegicus [5]): 104%; MAO-A activity remaining (% of control) [9]: 70%; MAO-B activity (% of control) [11]: 90%
C#CCN(C)[C@H](C)Cc1ccccc1 [SELEGILINE] | 1.8 mg/kg | 4.9 mg/kg | 200 mg/kg | Control [11]: 13%
Cn1nc(-c2ccc(Cl)cc2Cl)n(C)c1=S | > 25 mg/kg | – | > 80 mg/kg | –
CN(C)CCC=C1c2ccccc2CCc2ccccc21 [AMITRIPTYLINE] | 0.36 mg/kg | 8.73 mg/kg | 100 mg/kg | –
Cc1ccc(-c2nn(C)c(=S)n2C)cc1 | 1.74 mg/kg | 4.2 mg/kg | 400 mg/kg | –
Cn1nc(-c2c(F)cccc2F)n(C)c1=S | 0.44 mg/kg | 0.36 mg/kg | 400 mg/kg | Control (Rattus norvegicus [5]): 105%; MAO-A activity remaining (% of control) [9]: 104%; MAO-B activity (% of control) [11]: 97%
Cn1c(S)nnc1-c1ccccc1 | > 50 mg/kg | > 200 mg/kg | > 800 mg/kg | –
Cn1nc(-c2cccc(C(F)(F)F)c2)n(C)c1=S | > 50 mg/kg | > 200 mg/kg | 400 mg/kg | –

SMILES | ED50 (Mus musculus [1]) | ED50 (Mus musculus [2]) | LD50 [3] | other results
Cn1nc(-c2ccccc2)n(C)c1=O | > 50 mg/kg | > 200 mg/kg | 400 mg/kg | –
Sc1n[nH]c(-c2ccc(Cl)cc2)n1 | > 50 mg/kg | > 200 mg/kg | > 800 mg/kg | –
Cn1nc(-c2ccc(F)cc2F)n(C)c1=S | 1 mg/kg | 2.37 mg/kg | 400 mg/kg | –
Fc1ccc(-c2n[nH]c(S)n2)cc1 | > 50 mg/kg | > 200 mg/kg | 400 mg/kg | –
C#CCN(C)Cc1ccccc1 [PARGYLINE] | 13.6 mg/kg | 37.1 mg/kg | 400 mg/kg | –
Cn1nc(-c2ccc(Cl)cc2)n(C)c1=S | 1.34 mg/kg | 0.27 mg/kg | 400 mg/kg | inhibition in vivo at 10 mg/kg (Rattus norvegicus [4]): 10.9%; inhibition in vivo at 10 mg/kg (Rattus norvegicus [12]): 33%; Control (Rattus norvegicus [5]): 90%; inhibition in vivo at 10 mg/kg (Rattus norvegicus [7]): 6.3%; inhibition in vivo at 10 mg/kg (Rattus norvegicus [13]): 0%; MAO-A activity remaining (% of control) [9]: 109%; MAO-B activity (% of control) [11]: 75%
Cn1c(S)nnc1-c1ccc(Cl)cc1 | > 50 mg/kg | > 200 mg/kg | > 800 mg/kg | –
Cn1nc(-c2ccc(Cl)c(Cl)c2)n(C)c1=S | 29 mg/kg | 4.4 mg/kg | > 800 mg/kg | –
CNCCCC1c2ccccc2C=Cc2ccccc21 [PROTRIPTYLINE] | 0.14 mg/kg | 0.43 mg/kg | 50 mg/kg | –
CCn1c(-c2ccccc2)nn(C)c1=S | 0.58 mg/kg | 1.2 mg/kg | 400 mg/kg | –
Cn1nc(-c2ccccc2)n(C)c1=S | 0.15 mg/kg | 0.13 mg/kg | 100 mg/kg | MAO-A activity remaining (% of control) [9]: 104%; Control (Rattus norvegicus [10]): 92%; MAO-B activity (% of control) [11]: 110%
Cn1nc(-c2ccc(Cl)cc2)nc1S | > 50 mg/kg | > 200 mg/kg | > 800 mg/kg | –
Cn1nc(-c2cccc(F)c2)n(C)c1=S [SURITOZOLE] | 0.37 mg/kg | 0.29 mg/kg | 200 mg/kg | Control (Rattus norvegicus [5]): 110%; MAO-A activity remaining (% of control) [9]: 105%; MAO-B activity (% of control) [11]: 96%
CNCCC=C1c2ccccc2CCc2ccccc21 [NORTRIPTYLINE] | 0.71 mg/kg | 4.85 mg/kg | 50 mg/kg | –
Cn1nc(-c2c(Cl)cccc2Cl)n(C)c1=S | > 50 mg/kg | > 100 mg/kg | 400 mg/kg | –
Cn1nc(-c2ccccc2Cl)n(C)c1=S | 0.37 mg/kg | 0.58 mg/kg | 200 mg/kg | –
CCCn1c(-c2ccc(Cl)cc2)nn(C)c1=S | > 12.5 mg/kg | 12.5 mg/kg | 200 mg/kg | –
